Measurements: US20050127321A1, “Compositions containing lactone compatibilizers” (priority 2003, published 2005)

test system: New Zealand White rabbits; assay: Acute skin irritation/corrosive potential, scored on the Draize scale; assay type: in vivo; details: 0.5 mL undiluted, approximately 4 hours exposure, semi-occlusive, evaluated up to 72 hours
Experimental: Compositions of the present invention were evaluated for acute skin irritation/corrosive potential in New Zealand White rabbits. An aliquot of 0.5 mL of undiluted compatibilizer was administered to a localized site on the backs of the animals. The test sites were covered with a semi-oclusive dressing to ensure contact between the skin and the test substance. The animals were exposed to the test substances for approximately 4 hours. The test sites were evaluated for erythrema, edema, and other evidence of dermal effects for up to 72 hours following the removal of the test substance. Observed dermal effects were scored according to the Draize scale. The reversibility of dermal effects was assessed for up to 14 days, as necessary.

Compound	Classification	Observations (dermal effects)
5-methyl-n-octyl-pyrrolidin-2-one	Corrosive	Necrosis
CCCCCCC1CC(C)OC1=O (stereo not drawn) [3-hexyl-5-methyl-gammabutyrolactone]	Not a skin irritant	No irritation
CC1CCC(=O)N1C1CCCCC1 (stereo not drawn) [5-methyl-n-cyclohexyl pyrrolidin-2-one]	Corrosive	Necrosis
CCCCCCCCC(=O)N(C)C [N,N-Dimethylnonanamide]	Severe irritant	
CCCCCCCCN1CCCC1=O [N-octylpyrrolidin-2-one, reference compound]	Severe irritant	

test system: not listed separately; assay: Phase separation temperature of compatibilizer / Zerol 150 alkylbenzene oil / R134a mixtures (cloud point on cooling); assay type: physicochemical; details: near 25.0 wt % Zerol 150 : 25.0 wt % compatibilizer : 50.0 wt % R134a, cooled in one degree intervals
Experimental: The phase separation temperatures for lactone compatibilizers of the present invention when combined with Zerol® 150 alkylbenzene oil were determined. […] The glass tube was sealed at one end, and the other end was sealed to a Teflon® vacuum valve stopcock. This entire apparatus was tared, and was attached at valve E to a high vacuum line capable of achieving 10^−4 to 10^−5 torr (See FIG. 1). The pressure was measured by a mercury manometer, F. All five valves, A, B, C, D and E were attached to the manifold via greased ground-glass joints. Valve A joined the manifold to the source of refrigerant. Valve B joined a flask comprising fluorocarbon refrigerant, once loaded into the manifold. Valve C joined a 125.5 mL calibrated vessel to the manifold. And valve D joined a 5 mm OD in leg glass tube 150 mm in length containing oil and compatibilizer.
The glass tube, refrigerant container, and calibrated volume were evacuated by opening valve B, C, D, and E, and keeping valve A closed. After vacuum was achieved, Valve D and E were closed. An atmosphere of refrigerant was introduced into the vacuum line by opening Valve A. After closing valve A, the refrigerant was condensed into the refrigerant container by cooling with a liquid nitrogen bath. Valve E was opened to remove any residual air. Valve E was closed, and the refrigerant container was allowed to warm until the desired pressure was reached as indicated on the mercury manometer whereupon Valve C was closed trapping a known amount of refrigerant in the calibrated volume. The excess refrigerant was condensed back into the refrigerant container by cooling with a liquid nitrogen bath, Valve B was closed, and Valve E was opened to remove all residual gases. The glass tube was cooled in a liquid nitrogen bath, and the refrigerant was transferred from the calibrated volume to the glass tube by closing Valve E, and opening Valves C and D. Valve D was then sealed after all the refrigerant had transferred into the glass tube. The glass tube apparatus was removed from the vacuum line, and the tube was allowed to warm while maintaining the tube behind appropriate protective shielding for safety purposes throughout the rest of the procedure owing to the positive pressure in the glass tube. After removal of grease from the ground glass joint, the previously tared glass tube apparatus was weighed to ensure the appropriate mass of refrigerant had been added to the tube. In a typical experiment, the composition in the tube was near 50.0 wt % R134a, 25.0 wt % Zerol® 150 and 25.0 wt % of compatibilizer.
The phase separation temperature of the mixture was determined by manually shaking the contents of the glass tube while cooling the mixture by one degree Centigrade intervals until a cloudpoint/phase separation was visually observed. Results are shown in Table II in comparison with an amide compatibilizer, N-octyl-pyrrolidin-2-one.

Compound	Phase Separation Temperature
CC(CC[C@@H]1C[C@H](C)OC1=O)CC(C)(C)C (relative stereo) [cis-3-(3,5,5-trimethylhexyl)-5-methyl-dihydro-furan-2-one]	2 deg C
CC[C@@H]1C[C@H](C)OC1=O (relative stereo) [cis-3-ethyl-5-methyl-dihydro-furan-2-one]	>25 deg C
CCCCCCC[C@@H]1C[C@H](C)OC1=O (relative stereo) [cis-3-heptyl-5-methyl-dihydro-furan-2-one]	phase gelled and/or precipitated at −11 deg C
CCCCCC[C@@H]1C[C@H](C)OC1=O (relative stereo) [cis-3-hexyl-5-methyl-dihydro-furan-2-one]	−9 deg C
CCCCCC[C@]1(C)CCC(=O)O1 (stereo in doubt) [5-methyl-5-hexyl-dihydro-furan-2-one]	−2 deg C
CCCCCCCC[C@]1(C)CCC(=O)O1 (stereo in doubt) [5-methyl-5-octyl-dihydro-furan-2-one]	−4 deg C
O=C1OC[C@H]2CCCC[C@@H]12 (stereo in doubt) [Hexahydro-isobenzofuran-1-one]	4 deg C
CCCCCCCC1CCOC1=O (stereo not drawn) [3-heptyldihydro-furan-2-one]	0 deg C
CCCCCCC1CCOC1=O (stereo not drawn) [3-hexyldihydro-furan-2-one]	5 deg C
CC(CC=C1C[C@@H](C)OC1=O)CC(C)(C)C (stereo partly drawn) [(E,Z)-3-(3,5,5-trimethylhexylidene)-5-methyl-dihydrofuran-2-one]	3 deg C
CCCCCCC=C1CC(C)OC1=O (stereo not drawn) [(E,Z)-3-Heptylidene-5-methyl-dihydro-furan-2-one]	−6 deg C
CCCCCC=C1CC(C)OC1=O (stereo not drawn) [(E,Z)-3-Hexylidene-5-methyl-dihydro-furan-2-one]	−7 deg C
CCCC=C1CC(C)OC1=O (stereo not drawn) [(E,Z)-3-butylidene-5-methyl-dihydro-furan-2-one]	9 deg C
CC1C/C(=C/C2CCCCC2)C(=O)O1 (stereo not drawn) [(E,Z)-3-cyclohexylmethylidene-5-methyl-dihydrofuran-2-one]	−2 deg C
CC=C1CC(C)OC1=O (stereo not drawn) [(E,Z)-3-ethylidene-5-methyl-dihydro-furan-2-one]	24 deg C
CCCCCCCCC=C1CC(C)OC1=O (stereo not drawn) [(E,Z)-3-nonylidene-5-methyl-dihydro-furan-2-one]	4 deg C
CCCCCCCC=C1CC(C)OC1=O (stereo not drawn) [(E,Z)-3-octylidene-5-methyl-dihydro-furan-2-one]	−8 deg C

Compound	Phase Separation Temperature
CCCCC=C1CC(C)OC1=O (stereo not drawn) [(E,Z)-3-pentylidene-5-methyl-dihydro-furan-2-one]	0 deg C
CCC=C1CC(C)OC1=O (stereo not drawn) [(E,Z)-3-propylidene-5-methyl-dihydro-furan-2-one]	12 deg C
CCCCCCCCN1CCCC1=O [N-octylpyrrolidin-2-one, reference compound]	−4 deg C
CCCC[C@@H]1C[C@H](C)OC1=O [cis-(3-butyl-5-methyl)-dihydro-furan-2-one]	10 deg C
CCCCC[C@@H]1C[C@H](C)OC1=O [cis-(3-pentyl-5-methyl)-dihydro-furan-2-one]	−1 deg C
CCC[C@@H]1C[C@H](C)OC1=O [cis-(3-propyl-5-methyl)-dihydro-furan-2-one]	14 deg C
CCCCCC1CCCC(=O)O1 (stereo not drawn) [delta-decalactone]	−10 deg C
CCCCCCCC1CCCC(=O)O1 (stereo not drawn) [delta-dodecalactone]	−13 deg C
CCCCCCC1CCCC(=O)O1 (stereo not drawn) [delta-undecalactone]	−12 deg C
CCCCOC(=O)c1ccccc1C(=O)OCCCC [dibutyl phthalate, reference compound]	18 deg C
CCC1CCC(=O)O1 (stereo not drawn) [gamma-caprolactone, reference compound]	Immiscible with Zerol ®150
CCCCCCC1CCC(=O)O1 (stereo not drawn) [gamma-decalactone]	−3 deg C
CCCCCCCCC1CCC(=O)O1 (stereo not drawn) [gamma-dodecalactone]	−6 deg C
CCCCCC1CCC(=O)O1 (stereo not drawn) [gamma-nonalactone]	−2 deg C
CCCCC1CCC(=O)O1 (stereo not drawn) [gamma-octalactone]	10 deg C
(E,Z)-3-decylidene-5-methyl-dihydro-furan-2-one	13 deg C

test system: not listed separately; assay: Kinematic viscosity of lactone compatibilizers; assay type: physicochemical; details: at 40° C.

Compound	kinematic viscosity
CCCCCC[C@@H]1C[C@H](C)OC1=O (relative stereo) [cis-3-hexyl-5-methyl-dihydro-furan-2-one]	4.5 centistokes
